The subject of test [1] is LN229 and GBM39 cells. The test can be described thus: Soft agar colony formation (anchorage-independent growth). Type of test: cell-based, human. The following applies: LN229 and GBM39, 14 days. From the text: (§1) Cells were layered in soft agar to evaluate anchorage-independent growth in the presence of the indicated concentrations of inhibitor and colonies counted following 14 days of growth. Representative crystal violet stained images are shown below. Data represent mean+S.D. of three independent experiments. […] Cells were placed in Boyden chambers and allowed to migrate towards BSA (white bars), vitronectin (light yellow bars), or fibronectin (dark yellow bars) (*, P<0.05; n=3). […] Representative crystal violet stained images are shown (200×). Data represent mean+S.D. of three independent experiments. […] Graphical data shown below represent mean+S.D. (late apoptosis; annexin V-positive, PI-positive) of three independent experiments.
(§2) Cell proliferation, clonogenic, migration, invasion and apoptosis assays. Cell proliferation was determined via Cell Titer-Glo® luminescent cell assays (Promega). Clonogenic assays were done by plating a total of 1,000 cells per well in 24-well plates in a total volume of 400 μL using a two-layered soft agar system as previously described (Masri J, et al. (2007) Cancer Res 67: 11712-11720). Cell migration assays were conducted using precoated modified Boyden chambers as previously described (Benavides-Serrato A, et al. (2017) PLoS One 12: e0176599). […]

In test [2] the test system is LN229 and GBM39 cells. Briefly: Matrigel invasion assay. The class given is cell-based, human. The following applies: Matrigel-coated membranes.
Text: as §1, §2

For test [3], the system named is LN229 and GBM39 cells. The test can be described thus: Annexin V-FITC/PI apoptosis by flow cytometry. Type of test: cell-based, human. To be noted: LN229 and GBM39, 48 h.
Text: as §1, §2

For test [4], the system named is LN229 xenografts. The test can be described thus: Subcutaneous LN229 xenografts in SCID mice. The class given is in vivo. From the text:
Protein levels were quantified by Western analyses (inset; representative immunoblots of YAP and actin levels from tumors from the indicated tumor treatment groups), and normalized to actin levels of harvested tumors from mice with the corresponding treatments as indicated and described in Materials and Methods. […] Scale bar, 20 μm. […] Data are expressed as the number of positive apoptotic bodies (brown, indicated by arrows) divided by high power field (hpf; 10-12 hpf/tumor). Values are means+S.D., *, P<0.05. Scale bar, 20 μm.
Animal studies. Xenografts of LN229 cells were performed in 4-6-week-old female C.B.-17-scid (Taconic) mice as previously described (Holmes B, et al. (2016) J Biol Chem 291: 14146-14159). Tumors were harvested at autopsy for immunoblot analysis. Sections of paraffin-embedded tumors on slides were processed for immunohistochemistry as previously described (Benavides-Serrato A, et al. (2017) PLoS One 12: e0176599). For GEMM studies, double transgenic GFAP-EGFRvIII; GFAP-Cre/Rictor^loxP/loxP mice as previously described were used (Bashir T, et al. (2012) PLoS One 7: e47741). Determinations of blood plasma and brain concentrations of NSC682769 following IV administration were performed in C57/BL6 mice.
NSC682769 inhibits GBM tumor growth in xenografted mice. To examine the effects of NSC682769 in vivo, the ability of the compound to inhibit the growth of LN229 xenografted tumors implanted subcutaneously in SCID mice was tested. Following implantation, when tumors reached ˜200 mm^3, mice were randomized into treatment groups receiving vehicle, 5 mg/kg/d and 20 mg/kg/d of NSC682769. […] The relative expression level of YAP was reduced in harvested tumors from NSC682769 treated animals (5 mg/kg; 20 mg/kg) as compared to vehicle treated animals consistent with the observed effects of the inhibitor in vitro (FIG. 5D; see also FIG. 3). Expression of the YAP-dependent genes CTGF and Cyr61 was reduced in inhibitor treated groups relative to vehicle (FIG. 5E).

SMILES strings stand for the structures.

Results on one molecule are retold here after patent publication US20240108634A1, “COMPOSITIONS AND METHODS FOR INHIBITING YAP” (The United States Government as represented by the …, priority 2021, published 2024).

Consider `COc1ccc(-c2cc(-c3ccccc3)nc3c2CC(=O)Nc2ccccc2-3)cc1OC` [NSC682769], for which, in test [1], the “Clonogenic growth in soft agar” value is “inhibited”. The Cell invasiveness entry in test [2] is recorded as “reduced the number of cells able to traverse Matrigel-coated membranes”. The Apoptosis result in test [3] is given as “enhanced”. Besides, in test [4] (5 mg/kg/d), the Tumor growth delay was 11 days and the “Tumor growth inhibition at end of dosing period” value came out at 66%. The “Relative expression level of YAP in harvested tumors” value in test [4] (5 mg/kg, 20 mg/kg versus vehicle) is “reduced”. Further, in test [4] (20 mg/kg/d), the Tumor growth delay came out at 16 days and the “Tumor growth inhibition at end of dosing period” value came to 83%. Moreover, the “Overall survival relative to vehicle” value in test [4] (5 and 20 mg/kg/d) was “markedly extended”. Besides, the Harvested tumor weights result in test [4] (both dosing regimens versus vehicle) is reported as “significant reduction”. Besides, the “Apoptosis by TUNEL staining of tumors” value in test [4] (both dosing regimens, day 12) was “enhancement of apoptotic death”. Moreover, in test [4] (day 12 after start of treatment), the “Ki-67 staining of harvested tumors” value is “reduction”. In addition, in test [4] (treated groups versus vehicle), the “Expression of CTGF and Cyr61 in harvested xenografts” value was “reduced”.
